The assay has as its system BDF1 mice, B16 melanoma ip, median survival T/C. Nature of the assay: NCI In Vivo Anticancer Drug Screen. Data for tumor model B16 Melanoma (intraperitoneal) in B6D2F1 (BDF1) mice. As to conditions: endpoint: median survival time, higher = longer survival. The procedure, abridged: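 Compounds were tested in mice carrying transplantable tumors. Survival or tumor size was recorded, and each value is the treated-group measurement (T) divided by that of the vehicle-treated control group (C).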

[1] abbreviates: dose: 12.5 mg/kg/injection, schedule: Q01DX009 (ip), vehicle: Klucel (hydroxypropylcellulose) (HPC).
[2] abbreviates: dose: 25.0 mg/kg/injection, schedule: Q01DX009 (ip), vehicle: Klucel (hydroxypropylcellulose) (HPC).
[3] abbreviates: dose: 50.0 mg/kg/injection, schedule: Q01DX009 (ip), vehicle: Klucel (hydroxypropylcellulose) (HPC).
Where [4] appears, read: dose: 100.0 mg/kg/injection, schedule: Q01DX009 (ip), vehicle: Klucel (hydroxypropylcellulose) (HPC).
Where [5] appears, read: dose: 12.5 mg/kg/injection, schedule: Q01DX009 (ip), vehicle: saline with Tween-80.
Setting [6] is: dose: 25.0 mg/kg/injection, schedule: Q01DX009 (ip), vehicle: saline with Tween-80.

Inconclusive results and toxic doses are left out.

On to `NC1=C(N2CC2)C(=O)C(N)=C(N2CC2)C1=O`, for which the T/C is, setting by setting: (dose: 6.0 micrograms/kg/injection, schedule: Q01DX009 (ip), vehicle: saline) 112 % of control; (dose: 12.5 micrograms/kg/injection, schedule: Q01DX009 (ip), vehicle: saline) 112 % of control; (dose: 25.0 micrograms/kg/injection, schedule: Q01DX009 (ip), vehicle: saline) 105 % of control; (dose: 50.0 micrograms/kg/injection, schedule: Q01DX009 (ip), vehicle: saline) 120 % of control; (dose: 200.0 micrograms/kg/injection, schedule: Q01DX009 (ip), vehicle: saline) 124 % of control.
On to `NCCN`, for which the T/C reads like this: (dose: 177.0 mg/kg/injection, schedule: Q01DX009 (ip), vehicle: saline) 115 % of control; (dose: 266.0 mg/kg/injection, schedule: Q01DX009 (ip), vehicle: saline) 96 % of control; (dose: 400.0 mg/kg/injection, schedule: Q01DX009 (ip), vehicle: saline) 105 % of control.
Consider `COc1ccc2[nH]c3ccc4cc[n+](CCN5CCC(C6CCN(CC[n+]7ccc8ccc9[nH]c%10ccc(OC)cc%10c9c8c7)CC6)CC5)cc4c3c2c1`, for which the T/C reads like this: under setting [1], 150 % of control; under setting [2], 194 % of control; under setting [3], 180 % of control; under setting [4], 100 % of control.
In the case of `COc1cc(C(O)C(Cl)(Cl)Cl)ccc1O` (stereo not drawn), the T/C reads like this: (dose: 100.0 mg/kg/injection, schedule: Q01DX009 (ip), vehicle: other) 94 % of control; (dose: 200.0 mg/kg/injection, schedule: Q01DX009 (ip), vehicle: other) 91 % of control.
As for `ClC1(Cl)C2C=CC=CCC21` (stereo not drawn), the T/C is 107 % of control (dose: 50.0 mg/kg/injection, schedule: Q04DX003 (ip), vehicle: other); 102 % of control (dose: 100.0 mg/kg/injection, schedule: Q04DX003 (ip), vehicle: other); 86 % of control (dose: 200.0 mg/kg/injection, schedule: Q04DX003 (ip), vehicle: other).
Regarding `COc1cc(C(=O)O)c2c(c1C)OC(=O)c1c(C)cc(O)c(C=O)c1O2`, the T/C (dose: 1.39 mg/kg/injection, schedule: Q01DX009 (ip), vehicle: saline with Tween-80) was 97 % of control; the T/C (dose: 2.78 mg/kg/injection, schedule: Q01DX009 (ip), vehicle: saline with Tween-80) was 99 % of control; the T/C (dose: 5.56 mg/kg/injection, schedule: Q01DX009 (ip), vehicle: saline with Tween-80) is 110 % of control; the T/C (dose: 6.25 mg/kg/injection, schedule: Q01DX009 (ip), vehicle: Klucel (hydroxypropylcellulose) (HPC)) is 111 % of control; the T/C (dose: 11.0 mg/kg/injection, schedule: Q01DX009 (ip), vehicle: saline with Tween-80) is 158 % of control; the T/C under setting [1] is 117 % of control. Besides, the T/C reads like this: under setting [5], 150 % of control; under setting [2], 122 % of control; under setting [6], 160 % of control; (dose: 25.0 mg/kg/injection, schedule: Q04DX003 (ip), vehicle: saline with Tween-80) 113 % of control; (dose: 50.0 mg/kg/injection, schedule: Q04DX003 (ip), vehicle: saline with Tween-80) 105 % of control.
As to `CSCCC(NC(=O)c1ccccc1)C(=O)O` (stereo not drawn), the T/C runs as follows: under setting [1], 89 % of control; under setting [5], 104 % of control; under setting [2], 100 % of control; under setting [6], 97 % of control; under setting [3], 88 % of control; (dose: 50.0 mg/kg/injection, schedule: Q01DX009 (ip), vehicle: saline with Tween-80) 99 % of control. For the same compound, the T/C under setting [4] is 88 % of control.
For the compound `COc1ccc(-c2c(N)nc(=S)[nH]c2C(=O)O)cc1`, the T/C runs as follows: under setting [3], 94 % of control; under setting [4], 105 % of control; (dose: 200.0 mg/kg/injection, schedule: Q01DX009 (ip), vehicle: Klucel (hydroxypropylcellulose) (HPC)) 94 % of control.
As for `OC[CH2][Hg][Br]`, the T/C runs as follows: (dose: 0.37 mg/kg/injection, schedule: Q01DX009 (ip), vehicle: saline) 97 % of control; (dose: 0.75 mg/kg/injection, schedule: Q01DX009 (ip), vehicle: saline) 94 % of control; (dose: 1.5 mg/kg/injection, schedule: Q01DX009 (ip), vehicle: saline) 94 % of control; (dose: 3.0 mg/kg/injection, schedule: Q01DX009 (ip), vehicle: saline) 93 % of control.
For `COc1ccc(NC(=O)Nc2ccc(Cl)cc2C)cc1`, the T/C by setting is: (dose: 100.0 mg/kg/injection, schedule: Q01DX009 (sc), vehicle: olive oil, sesame oil, peanut oil) 101 % of control; (dose: 200.0 mg/kg/injection, schedule: Q01DX009 (sc), vehicle: olive oil, sesame oil, peanut oil) 111 % of control; (dose: 400.0 mg/kg/injection, schedule: Q01DX009 (sc), vehicle: olive oil, sesame oil, peanut oil) 103 % of control.
For `CC(C)(O)C1OCC(C2CCC3(C)C4=CCC5C(C)(C)C(O)CCC5(C)C4CCC23C)CC1O` (stereo not drawn), the T/C is 102 % of control (dose: 2.5 mg/kg/injection, schedule: Q01DX009 (ip), vehicle: Klucel (hydroxypropylcellulose) (HPC)); 98 % of control (dose: 5.0 mg/kg/injection, schedule: Q01DX009 (ip), vehicle: Klucel (hydroxypropylcellulose) (HPC)); 89 % of control (dose: 10.0 mg/kg/injection, schedule: Q01DX009 (ip), vehicle: Klucel (hydroxypropylcellulose) (HPC)).

For the origin of these results see PubChem BioAssay AID192 (DTP/NCI, 2004).
